In patent publication US7507708B2, “Antitumoral compounds” (Pharma Mar, S.A.U., priority 2003, dated 2009):

Legend:
K-562 = experiment: In vitro cytotoxic activity, SRB assay; format: cell-based, human; settings: K-562, 48 hours exposure
From the text: (§1) Plates are washed with deionized water and dried.

SK-BR-3 = experiment: In vitro cytotoxic activity, SRB assay; format: cell-based, human; settings: SK-BR-3, 48 hours exposure; for CC50: read-out: LC50 (the source's name)
From the text: as §1

LOVO-DOX = experiment: In vitro cytotoxic activity, SRB assay; format: cell-based, human; settings: 48 hours exposure
From the text: as §1

PANC-1 = experiment: In vitro cytotoxic activity, SRB assay; format: cell-based, human; settings: PANC-1, 48 hours exposure
From the text: as §1

LOVO = experiment: In vitro cytotoxic activity, SRB assay; format: cell-based, human; settings: 48 hours exposure
From the text: as §1

IGROV = experiment: In vitro cytotoxic activity, SRB assay; format: cell-based, human; settings: 48 hours exposure
From the text: as §1

MEL-28 = experiment: In vitro cytotoxic activity, SRB assay; format: cell-based, human; settings: MEL-28, 48 hours exposure
From the text: as §1

A-549 = experiment: In vitro cytotoxic activity, SRB assay; format: cell-based, human; settings: A-549, 48 hours exposure; for CC50: read-out: LC50 (the source's name)
From the text: as §1

DU-145 = experiment: In vitro cytotoxic activity, SRB assay; format: cell-based, human; settings: DU-145, 48 hours exposure
From the text: as §1

HT-29 = experiment: In vitro cytotoxic activity, SRB assay; format: cell-based, human; settings: HT-29, 48 hours exposure; for CC50: read-out: LC50 (the source's name)
From the text: as §1

IGROV-ET = experiment: In vitro cytotoxic activity, SRB assay; format: cell-based, human; settings: 48 hours exposure
From the text: as §1

LN-caP = experiment: In vitro cytotoxic activity, SRB assay; format: cell-based, human; settings: 48 hours exposure
From the text: as §1

HELA-APL = experiment: In vitro cytotoxic activity, SRB assay; format: cell-based, human; settings: 48 hours exposure; for CC50: read-out: LC50 (the source's name)
From the text: as §1

female mice = settings: cited from earlier work
HELA = experiment: In vitro cytotoxic activity, SRB assay; settings: for CC50: read-out: LC50, 48 hours exposure
Protocol: The finality of these assays is to interrupt the growth of a “in vitro” tumor cell culture by means a continued exhibition of the cells to the sample to be testing.
Most of the cell lines are obtained from American Type Culture Collection (ATCC) derived from different human cancer types.
Cells are maintained in RPMI 1640 10% FBS, supplemented with 0.1 g/l penicillin and 0.1 g/l streptomycin sulfate and then incubated at 37° C., 5% CO2 and 98% humidity. For the experiments, cells were harvested from subconfluent cultures using trypsin and resuspended in fresh medium before plating.
Cells are seeded in 96 well microtiter plates, at 5×10^3 cells per well in aliquots of 195 μl medium, and they are allowed to attach to the plate surface by growing in drug free medium for 18 hours. Afterward, samples are added in aliquots of 5 μl in a ranging from 10 to 10^−8 μg/ml, dissolved in DMSO/EtOH/PBS (0.5:0.5:99). After 48 hours exposure, the antitumor effect are measured by the SRB methodology: cells are fixed by adding 50 μl of cold 50% (wt/vol) trichloroacetic acid (TCA) and incubating for 60 minutes at 4° C. Plates are washed with deionized water and dried. One hundred μl of SRB solution (0.4% wt/vol in 1% acetic acid) is added to each microtiter well and incubated for 10 minutes at room temperature. Unbound SRB is removed by washing with 1% acetic acid. Plates are air dried and bound stain is solubilized with Tris buffer. Optical densities are read on a automated spectrophotometric plate reader at a single wavelength of 490 nm.
The values for mean +/− SD of data from triplicate wells are calculated. Some parameters for cellular responses can be calculated: GI=growth inhibition, TGI=total growth inhibition (cytostatic effect) and LC=cell killing (cytotoxic effect).

[1] = In vivo MTD in athymic mice; settings: mouse; for MTD at 5 days: 5 daily doses; for MTD: intravenous, single bolus
Protocol: (§2) The Maximum Tolerated Dose is determined in CD-1 and athymic mice (both genders) for each drug after single bolus administration and after 5 dayly doses. The results are given in table IV, there is no significant difference between the compounds 5 methylhexanoic KF and (4S)-methylhexanoic KF.

[2] = tested on: NRK-52E, normal rat kidney cell; experiment: In vitro toxicity to normal cells, MTS assay; format: cell-based; settings: 24 h
Protocol: (§3) In order to assess the cytotoxicity of the drugs to normal cells, we used 96 well plates plated at a density of 5000 cells per well with normal cell lines maintained as per the directions of the ATCC: AML-12, normal mouse liver cells and NRK-52E, normal rat kidney cell. The cells in each plate were permitted to settle overnight before adding the test drug. To each well (100 μl medium) 10 μl of drug in media was added at varying concentrations (1×10^−10-0.01 mg/ml final concentration) and further incubated overnight at 37° C. with 5% CO2. All experiments were repeated at least 3 times and were assayed in duplicate. After 24 h the MTS assay (CellTiter 96 aqueous) was performed according to the manufacturer's (Promega) directions (for all cell types). Cell viability (mitochondrial activity) is determined via enzymatic conversion of the formazan substrate.

In vivo MTD in CD-1 mice = settings: mouse, unit inferred; for MTD at 5 days: 5 daily doses; for MTD: intravenous, single bolus
Protocol: as §2

[3] = tested on: AML-12, normal mouse liver cells; experiment: In vitro toxicity to normal cells, MTS assay; settings: read-out: ALM Liver IC50, 24 h
Protocol: as §3

[4] = female athymic mice, no unit printed in table (325 μg/kg/day), read-out: Female athymic mice MTD 5DD
[5] = female athymic mice, unit inferred, read-out: Female athymic mice MTD Bolus
[6] = male athymic mice, unit inferred, read-out: Male athymic mice MTD Bolus
[7] = male athymic mice, unit inferred, read-out: Male athymic mice MTD 5DD
[8] = female CD-1 mice, read-out: Female CD-1 mice MTD 5DD
[9] = female CD-1 mice, read-out: Female CD-1 mice MTD Bolus
[10] = male CD-1 mice, read-out: Male CD-1 mice MTD Bolus
[11] = male CD-1 mice, read-out: Male CD-1 mice MTD 5DD

Work on `C/C=C1\NC(=O)[C@H](Cc2ccccc2)NC(=O)[C@@H](C(C)C)NC(=O)[C@@H]([C@@H](C)CC)NC(=O)[C@H](NC(=O)[C@H](NC(=O)[C@H](CCCN)NC(=O)[C@H]2CCCN2C(=O)[C@H](NC(=O)[C@@H](NC(=O)[C@@H](NC(=O)[C@H](NC(=O)CCCC(C)C)C(C)C)[C@@H](C)O)C(C)C)C(C)C)[C@@H](C)CC)[C@@H](C)OC(=O)[C@H](C(C)C)NC1=O` [5-methylhexanoic KF, reference compound] yielded a GI50 (K-562) of 1540 nM, an LC50 (50% lethal concentration) (K-562) of 5660 nM and a GI50 (SK-BR-3) of 398 nM. For the same compound, the CC50 (SK-BR-3) was 6770 nM, the GI50 (LOVO-DOX) was 162 nM and the LC50 (LOVO-DOX) was 620 nM. For the same compound, the GI50 (PANC-1) was 1380 nM, the LC50 (PANC-1) was 6070 nM and the GI50 (LOVO) was 120 nM. For the same compound, the LC50 (50% lethal concentration) (LOVO) was 428 nM, the GI50 (IGROV) was 420 nM and the LC50 (IGROV) was 3800 nM. The GI50 (MEL-28) was 690 nM, the LC50 (MEL-28) was 3550 nM and the GI50 (A-549) was 866 nM. For the same compound, the CC50 (A-549) was 3780 nM, the GI50 (DU-145) was 751 nM and the LC50 (DU-145) was 3600 nM. The GI50 (HT-29) was 141 nM, the CC50 (HT-29) was 562 nM and the GI50 (IGROV-ET) was 447 nM. It also gave an LC50 (IGROV-ET) of 3090 nM, a GI50 (LN-caP) of 961 nM and an LC50 (50% lethal concentration) (LN-caP) of 5570 nM. The GI50 (HELA-APL) was 1060 nM, the CC50 (HELA-APL) was 4430 nM and the “tolerability of repeated administration” value (female mice; 280 μg/kg, once daily times five schedule) was “without any apparent evidence of acute toxicity”. The “maximum tolerated dose (MTD)” value (female mice; female mice, single bolus iv injection) was 0.28 mg/kg, the GI50 (HELA; 48 hours exposure) was 839 nM and the CC50 (HELA) was 4260 nM. It also gave an MTD at 5 days [1, 4] of 0.325 mg/kg, an MTD [1, 5] of 0.325 mg/kg and an MTD [1, 6] of 0.35 mg/kg. It also gave an MTD at 5 days [1, 7] of 0.35 mg/kg, an IC50 [2] of 2700 nM and an MTD at 5 days (In vivo MTD in CD-1 mice; [8]) of 0.175 to 0.35 mg/kg. The MTD (In vivo MTD in CD-1 mice; [9]) was 0.2 mg/kg, the MTD (In vivo MTD in CD-1 mice; [10]) was 0.3 mg/kg and the MTD at 5 days (In vivo MTD in CD-1 mice; [11]) was 0.175 to 0.35 mg/kg. The IC50 [3] was 3400 nM.

`C/C=C1\NC(=O)[C@H](Cc2ccccc2)NC(=O)[C@@H](C(C)C)NC(=O)[C@@H]([C@@H](C)CC)NC(=O)[C@H](NC(=O)[C@H](NC(=O)[C@H](CCCN)NC(=O)[C@H]2CCCN2C(=O)[C@H](NC(=O)[C@@H](NC(=O)[C@@H](NC(=O)[C@H](NC(=O)CC[C@H](C)CC)C(C)C)[C@@H](C)O)C(C)C)C(C)C)[C@@H](C)CC)[C@@H](C)OC(=O)[C@H](C(C)C)NC1=O` [(4R)-methylhexanoic KF] gave a GI50 (K-562) of 3730 nM, an LC50 (50% lethal concentration) (K-562) of 6770 nM and a TGI (K-562) of 6.77E−06 Molar. For the same compound, the GI50 (SK-BR-3) was 1250 nM, the TGI (SK-BR-3) was 2.20E−06 Molar and the CC50 (SK-BR-3) was 3860 nM. It also gave a GI50 (LOVO-DOX) of 288 nM, an LC50 (LOVO-DOX) of 2190 nM and a TGI (LOVO-DOX) of 7.71E−07 Molar. It also gave a GI50 (PANC-1) of 4700 nM, an LC50 (PANC-1) of 4240 nM and a TGI (PANC-1) of 4.24E−06 Molar. For the same compound, the GI50 (LOVO) was 248 nM, the LC50 (50% lethal concentration) (LOVO) was 2280 nM and the TGI (LOVO) was 7.78E−07 Molar. The GI50 (IGROV) was 941 nM, the LC50 (IGROV) was 3500 nM and the TGI (IGROV) was 1.81E−06 Molar. It also gave a GI50 (MEL-28) of 1140 nM, an LC50 (MEL-28) of 3800 nM and a TGI (MEL-28) of 2.09E−06 Molar. For the same compound, the GI50 (A-549) was 1200 nM, the TGI (A-549) was 2.26E−06 Molar and the CC50 (A-549) was 4240 nM. The GI50 (DU-145) was 1200 nM, the LC50 (DU-145) was 3820 nM and the TGI (DU-145) was 2.14E−06 Molar. The GI50 (HT-29) was 738 nM, the TGI (HT-29) was 1.54E−06 Molar and the CC50 (HT-29) was 3220 nM. The GI50 (IGROV-ET) was 805 nM, the LC50 (IGROV-ET) was 3260 nM and the TGI (IGROV-ET) was 1.62E−06 Molar. For the same compound, the GI50 (LN-caP) was 1500 nM, the LC50 (50% lethal concentration) (LN-caP) was 4040 nM and the TGI (LN-caP) was 2.46E−06 Molar. For the same compound, the GI50 (HELA-APL) was 1560 nM, the TGI (HELA-APL) was 3.47E−06 Molar and the CC50 (HELA-APL) was 6770 nM. For the same compound, the GI50 (HELA; 48 hours exposure) was 1050 nM, the TGI (HELA; 48 hours exposure) was 1.93E−06 Molar and the CC50 (HELA) was 3550 nM.

`C/C=C1\NC(=O)[C@H](Cc2ccccc2)NC(=O)[C@@H](C(C)C)NC(=O)[C@@H]([C@@H](C)CC)NC(=O)[C@H](NC(=O)[C@H](NC(=O)[C@H](CCCN)NC(=O)[C@H]2CCCN2C(=O)[C@H](NC(=O)[C@@H](NC(=O)[C@@H](NC(=O)[C@H](NC(=O)CC[C@@H](C)CC)C(C)C)[C@@H](C)O)C(C)C)C(C)C)[C@@H](C)CC)[C@@H](C)OC(=O)[C@H](C(C)C)NC1=O` [(4S)-methylhexanoic KF, 4(S)-MeHex-D-Val-L-Thr-L-VaI-D-Val-D-Pro-L-Orn-D-allo-Ile-cyclo(D-allo-Thr-D-allo-Ile-D-Val-L-Phe-Z-Dhb-L-Val)] showed a GI50 (K-562) of 2520 nM, an LC50 (50% lethal concentration) (K-562) of 6770 nM and a GI50 (SK-BR-3) of 181 nM. It also gave a CC50 (SK-BR-3) of 606 nM, a GI50 (LOVO-DOX) of 157 nM and an LC50 (LOVO-DOX) of 677 nM. For the same compound, the GI50 (PANC-1) was 6770 nM, the LC50 (PANC-1) was 6770 nM and the GI50 (LOVO) was 163 nM. For the same compound, the LC50 (50% lethal concentration) (LOVO) was 580 nM, the GI50 (IGROV) was 292 nM and the LC50 (IGROV) was 2620 nM. It also gave a GI50 (MEL-28) of 1430 nM, an LC50 (MEL-28) of 4720 nM and a GI50 (A-549) of 267 nM. For the same compound, the CC50 (A-549) was 3090 nM, the GI50 (DU-145) was 237 nM and the LC50 (DU-145) was 2490 nM. For the same compound, the GI50 (HT-29) was 301 nM, the CC50 (HT-29) was 2710 nM and the GI50 (IGROV-ET) was 225 nM. For the same compound, the LC50 (IGROV-ET) was 2820 nM, the GI50 (LN-caP) was 1120 nM and the LC50 (50% lethal concentration) (LN-caP) was 5930 nM. It also gave a GI50 (HELA-APL) of 1040 nM, a CC50 (HELA-APL) of 4390 nM and a GI50 (HELA; 48 hours exposure) of 1180 nM. The CC50 (HELA) was 4970 nM, the MTD at 5 days [1, 4] was 0.325 mg/kg and the MTD [1, 5] was 0.325 mg/kg. For the same compound, the MTD [1, 6] was 0.35 mg/kg, the MTD at 5 days [1, 7] was 0.35 mg/kg and the IC50 [2] was 2700 nM. The MTD at 5 days (In vivo MTD in CD-1 mice; [8]) was 0.175 to 0.35 mg/kg, the MTD (In vivo MTD in CD-1 mice; [9]) was 0.2 mg/kg and the MTD (In vivo MTD in CD-1 mice; [10]) was 0.3 mg/kg. The MTD at 5 days (In vivo MTD in CD-1 mice; [11]) was 0.175 to 0.35 mg/kg and the IC50 [3] was 5400 nM.
